From patent EP2567943A1, “TITANIUM COAGULANT FOR NATURAL AND WASTE WATER PURIFICATION AND DISINFECTION AND METHOD FOR UTILIZING THEREOF” (Sittec Closed Joint Stock Company (Sittec CJSC), priority 2007, dated 2009)

Legend:
[1] = acute toxicity (hazard indices); settings: in vivo
Procedure: (§1) Testing the safe method for producing and utilizing the claimed titanium coagulant (absence of mutagenous impact; sensibilizing, allergenic, carcinogenic, gonadotoxic and other action) was carried out on the base of the State organ SRI of human ecology and environmental hygiene named after A.N. Sysin of the Russian Academy of Medical Sciences (RAMS).
(§2) Particularly, derivatives of aluminium oxychloride (AOC) and aluminium sulfate are monitored in accordance with the aluminium content in potable water. While testing the new coagulant, the same principles for evaluating the titanium coagulant safety as the safety evaluation of coagulants based on aluminium were applied. […]

[2] = hygienic hazard indices in water
Procedure: as §1, §2
One can see from the Table 22 that the method for producing the titanium coagulant and the coagulant generally are safe by the main hygienic indices, and control of the titanium coagulant content in purified water should be performed in accordance with the titanium and aluminium content therein pursuant to the MAC of 0.1 mg/L and 0.2 mg/L, respectively, established for them.

Compound	LD50 [1] [mg/kg]	L.conc. ([2]; muddiness)	Min.possi bl [2] [mg/kg]	L.conc. ([2]; retardation)	L.conc. ([2]; taint)	MAC [2] [mg/L]
[Al] [Aluminium]	180 to 1360	0.2 (muddiness) mg/L				
Titanium	150		1.0	0.1 (retardation) mg/L	4.5 (taint) mg/L	
aluminium oxychloride [AOC, reference compound]		1.45 (muddiness) mg/L	1.0	1.0 (retardation) mg/L		1.5
